Experimental findings from US20090099167A1, “Organic compounds” (Novartis Institutes for Biomedical Research, priority 2004, published 2009) are described below.

One assay deals with T1, c-Abl kinase (Homo sapiens, UniProt P00519).
T1 construct: The His-tagged kinase domain of c-Abl is cloned and expressed in the baculovirus/Sf9 system; His; made in house; host or cells: Sf9 (baculovirus)
T1 sequence (P00519 242-493 limits assumed): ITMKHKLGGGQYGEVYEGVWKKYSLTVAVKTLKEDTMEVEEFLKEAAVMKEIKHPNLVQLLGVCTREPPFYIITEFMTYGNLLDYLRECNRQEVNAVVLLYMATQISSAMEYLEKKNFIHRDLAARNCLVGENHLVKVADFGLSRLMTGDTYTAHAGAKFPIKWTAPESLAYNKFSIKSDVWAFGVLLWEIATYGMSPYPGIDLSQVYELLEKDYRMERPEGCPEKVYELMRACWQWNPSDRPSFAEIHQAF
Nature of the assay: c-Abl protein-tyrosine kinase filter binding assay. Format: biochemical. As to conditions: Table 5; read-out: C-abl, IC50 class. The method in brief: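 His-tagged c-Abl kinase domain (37 kD, Sf9-expressed) with 30 μg/mL poly-AEKY and [γ-33P]-ATP (5 μM ATP) in 20 mM Tris.HCl pH 7.5, 10 mM MgCl2, 10 μM Na3VO4, 1 mM DTT, 1% DMSO. EDTA-stopped reactions captured on PVDF membranes, washed with 0.5% H3PO4, and scintillation-counted.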

Another assay addresses T2, Tek (Homo sapiens, UniProt Q02763).
T2 construct: N-terminally GST-fused (pAcG1, Pharmingen) KDR, Flt-1, Flk-1, Tek and PDGFR-β kinase domains are obtained from ProQinase, Freiburg, Germany; host or cells: Sf9 or High Five (baculovirus)
Nature of the assay: Tek kinase inhibition, GST-fused kinase domain. As to conditions: Table 5; read-out: Tek, IC50 class. Format: biochemical. The text has this: The inhibition of IGF-1R and Ins-R can be determined as follows: The baculovirus donor vector pfbgx3IGFIRcd is used to generate a recombinant baculovirus that expresses the amino acid region 950-1337 of the mature peptide cytoplasmic domain of the human IGF-IR. To generate the cDNA fragment encoding the amino acid region 919-1343 of the intra-cytoplasmic kinase domain of the human insulin receptor, pC5hInsR is used. The fragments of the human IGF-IR and Ins-R are cloned, expressed and small-scale purified as a factor Xa-cleavable glutathione-S-transferase (GST)-fusion protein using the Bac-to-Bac™ system (GIBCO BRL) of recombinant baculovirus generation. Virus containing media is collected from the transfected cell culture and used for infection to increase its titer. Virus containing media obtained after two rounds of infection is used for large-scale protein expression. Cell extracts are prepared and loaded onto a glutathione-Sepharose (Pharmacia) column. After washing, the GST-tagged proteins are then eluted with a glutathione-containing buffer. Purified protein is stored at −70° C. in elution buffer. Tyrosine protein kinase assays with purified GST-IGF-1R and GST-ins-R are carried in a final volume of 30 μl containing 20 mM Tris-HCl, pH 7.6, 10 mM MgCl2, 0.01 mM Na3VO4, 1% DMSO, 1 mM DTT, 3 μg/ml poly(Glu,Tyr) 4:1 and 10 μM ATP (γ-[^33P]-ATP 0.1 μCi). The assay is performed in 96-well plates at ambient temperature for 20 min and terminated by addition of 25 μl 0.05 M EDTA pH 7.0. An aliquot of 40 μl is spotted with a multichannel dispenser on Whatman P81 membranes mounted in a Millipore Microtiter filter manifold connected to a low vacuum source. After elimination of liquid, the membrane is transferred to a sequence of 4 washing baths containing 0.5% H3PO4 and one with EtOH (shaking incubation for 10 min each), dried, mounted onto a Hewlett Packard TopCount manifold added 10 μl Microscint® and counted. Compounds of formula (I) show up to 90% inhibition of Ins-R at 10,000 nM, preferably between 60-90% inhibition. The inhibition of Tek can be determined as follows: The procedure of the expression, purification and assay these kinases has been described. Fabbro et al., Pharmacol. Ther. 82(2-3) 293-301 (1999). In brief, the glutathione S-transferase (GST) gene from the pAcG1 vector (Pharmingen) is excised with EcoRV and EcoRI and inserted into the cloning site of the Fast-Bac baculoviral vector (GIBCO) creating a 5530 bp vector with N-terminal cloning sites derived from the pAcG1 fusion vector (FBG0). The C-terminal cloning site may be any cloning site (from the Fast-Bac vector) downstream of the N-terminal cloning site used. N-terminally GST-fused (pAcG1, Pharmingen) KDR, Flt-1, Flk-1, Tek and PDGFR-β kinase domains are obtained from ProQinase, Freiburg, Germany. Tek is recloned into the FBG1 vector by EcoRI excision and ligation into EcoRI digested FBG1 (FBG1-Tek). The coding sequences for the whole cytoplasmic domain of c-Kit (aa 544-976) and c-Fms (aa 538-972) are amplified by PCR from human uterus and from human bone marrow cDNA libraries (Clontech), respectively. The amplified DNA fragments are fused to GST by cloning them into FBG1 as BamHI-EcoRI insertions, to yield FBG1-c-Kit and FBG1-c-Fms. Tek is recloned into the FBG0 transfer vector by EcoRI excision and ligation into EcoRI digested FBG0 (FBG-Tie2/Tek). FGFR-1 and c-met kinase domains are obtained by PCR from human A431 cells. N-terminal primers contain an overhanging EcoRI site, while C-terminal primers contain a XhoI site to aid cloning into the transfer vectors. After digestion of both the PCR fragments and FBG0 the cleavage products are gel-purified and ligated together to form the kinase constructs (FBG-Met, FBG-FGFR-1).
Viruses for each of the kinases are made according to the protocol supplied by GIBCO. […]

A value given as a limit tells only on which side of the number the result lay.

T2 sequence (Q02763 824-1096 limits assumed, species assumed): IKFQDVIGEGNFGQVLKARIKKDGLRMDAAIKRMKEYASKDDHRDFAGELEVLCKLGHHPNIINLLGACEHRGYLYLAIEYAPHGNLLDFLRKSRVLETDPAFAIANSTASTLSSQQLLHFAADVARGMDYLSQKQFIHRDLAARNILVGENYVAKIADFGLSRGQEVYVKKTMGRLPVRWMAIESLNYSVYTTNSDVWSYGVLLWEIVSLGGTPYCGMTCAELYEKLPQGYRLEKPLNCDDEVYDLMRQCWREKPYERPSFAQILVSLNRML

The term IC50 denotes the concentration at which inhibition is half-maximal. With `COc1ccc(-c2cnn3c(N)c(-c4cccc(Cl)c4)c(C)nc23)cc1` [Example 88, 6-(3-Chloro-phenyl)-3-(4-methoxy-phenyl)-5-methyl-pyrazolo[1,5-a]pyrimidin-7-ylamine], the IC50 at c-Abl kinase was less than 1000 nM; at Tek, greater than 10000 nM.

Take `Cc1nc2c(-c3cccc(N4CCN(C5CCN(C)CC5)CC4)c3)cnn2c(N)c1-c1cccc(Cl)c1` [Example 81, 6-(3-Chloro-phenyl)-5-methyl-3-{3-[4-(1-methyl-piperidin-4-yl)-piperazin-1-yl]-phenyl}-pyrazolo[1,5-a]pyrimidin-7-ylamine]: the IC50 at c-Abl kinase and at Tek was less than 1000 nM throughout.

Regarding `Cc1nc2c(-c3cccc([N+]4([O-])CC[N+](C)([O-])CC4)c3)cnn2c(N)c1-c1ccc(F)cc1` (centres unmarked) [Example 107, 6-(4-Fluoro-phenyl)-5-methyl-3-[3-(4-methyl-1,4-dioxy-piperazin-1-yl)-phenyl]-pyrazolo[1,5-a]pyrimidin-7-ylamine], the values for the IC50 at c-Abl kinase and on Tek were less than 1000 nM and greater than 10000 nM, respectively.

Consider `COc1ccc(-c2cnn3c(N)c(-c4ccc(F)cc4)c(C)nc23)cc1` [Example 96, 6-(4-Fluoro-phenyl)-3-(4-methoxy-phenyl)-5-methyl-pyrazolo[1,5-a]pyrimidin-7-ylamine], for which the IC50 on c-Abl kinase is less than 1000 nM; on Tek, greater than 10000 nM.

Regarding `Cc1nc2c(-c3cccc(N4CCC(N5CCCC5)CC4)c3)cnn2c(N)c1-c1cccc(Cl)c1` [Example 102, 6-(3-Chloro-phenyl)-5-methyl-3-[3-(4-pyrrolidin-1-yl-piperidin-1-yl)-phenyl]-pyrazolo[1,5-a]pyrimidin-7-ylamine], the values for the IC50 at c-Abl kinase and on Tek were less than 1000 nM and 1000 to 10000 nM, respectively.

Consider `Cc1nc2c(-c3cccc(N4CCN(C)CC4)c3)cnn2c(N)c1-c1ccc(F)c(Cl)c1` [Example 82, 6-(3-Chloro-4-fluoro-phenyl)-5-methyl-3-[3-(4-methyl-piperazin-1-yl)-phenyl]pyrazolo[1,5-a]pyrimidin-7-ylamine], for which the IC50 at c-Abl kinase was less than 1000 nM; at Tek it was greater than 10000 nM.

For `CN1CCN(c2cccc(-c3cnn4c(N)c(Cc5ccccc5)cnc34)c2)CC1` [Example 91, 6-Benzyl-3-[3-(4-methyl-piperazin-1-yl)-phenyl]-pyrazolo[1,5-a]pyrimidin-7-ylamine], the IC50 on c-Abl kinase was less than 1000 nM; at Tek it was greater than 10000 nM.

With `Cc1nc2c(-c3ccc(N4CCN(C)CC4)cc3)cnn2c(N)c1-c1cccc(Cl)c1` [Example 73, 6-(3-Chloro-phenyl)-5-methyl-3-[4-(4-methyl-piperazin-1-yl)-phenyl]-pyrazolo[1,5-a]pyrimidin-7-ylamine], the IC50 on c-Abl kinase was less than 1000 nM; at Tek it was 1000 to 10000 nM.

With `Cc1nc2c(-c3cccc(N4CCOCC4)c3)cnn2c(N)c1-c1cccc(Cl)c1` [Example 87, 6-(3-Chloro-phenyl)-5-methyl-3-(3-morpholin-4-yl-phenyl)-pyrazolo[1,5-a]pyrimidin-7-ylamine], the figures for the half-maximal inhibitory concentration (IC50) at c-Abl kinase and at Tek were less than 1000 nM and greater than 10000 nM, respectively.

As to `COc1ccc(-c2cnn3c(N)c(-c4cccc(Cl)c4)c(C)nc23)cc1OC` [Example 93, 6-(3-Chloro-phenyl)-3-(3,4-dimethoxy-phenyl)-5-methyl-pyrazolo[1,5-a]pyrimidin-7-ylamine], the results for the IC50 at c-Abl kinase and at Tek were less than 1000 nM and greater than 10000 nM, respectively.

Consider `COc1ccc(-c2cnn3c(N)c(-c4ccc(F)c(Cl)c4)c(C)nc23)cc1` [Example 95, 6-(3-Chloro-4-fluoro-phenyl)-3-(4-methoxy-phenyl)-5-methyl-pyrazolo[1,5-a]pyrimidin-7-ylamine], for which the IC50 at c-Abl kinase was less than 1000 nM; at Tek, greater than 10000 nM.

In the case of `Cc1nc2c(-c3cccc(N4CCN(C)CC4)c3)cnn2c(N)c1-c1ccc(F)c(F)c1` [Example 98, 6-(3,4-Difluoro-phenyl)-5-methyl-3-[3-(4-methyl-piperazin-1-yl)-phenyl]-pyrazolo[1,5-a]pyrimidin-7-ylamine], the IC50 at c-Abl kinase is less than 1000 nM; at Tek, 1000 to 10000 nM.

Turning to `Cc1nc2c(-c3cccc(N4CCN(C)CC4)c3)cnn2c(N)c1-c1cccc(Br)c1` [Example 84, 6-(3-Bromo-phenyl)-5-methyl-3-[3-(4-methyl-piperazin-1-yl)-phenyl]-pyrazolo[1,5-a]pyrimidin-7-ylamine], the IC50 at c-Abl kinase was less than 1000 nM; at Tek, greater than 10000 nM.

Consider `Cc1nc2c(-c3cccc(N4CCN(C)CC4)c3)cnn2c(N)c1-c1ccc(F)cc1` [Example 80, 6-(4-Fluoro-phenyl)-5-methyl-3-[3-(4-methyl-piperazin-1-yl)-phenyl]-pyrazolo[1,5-a]pyrimidin-7-ylamine], for which the IC50 was less than 1000 nM on c-Abl kinase and 1000 to 10000 nM on Tek.

In the case of `Cc1nc2c(-c3cccc(N4CCN(CCO)CC4)c3)cnn2c(N)c1-c1ccc(F)c(F)c1` [Example 101, 2-(4-{3-[7-Amino-6-(3,4-difluoro-phenyl)-5-methyl-pyrazolo[1,5-a]pyrimidin-3-yl]-phenyl}-piperazin-1-yl)-ethanol], the figures for the IC50 at c-Abl kinase and on Tek were less than 1000 nM and greater than 10000 nM, respectively.

As for `COc1ccc(-c2cnn3c(N)c(-c4ccc(F)c(Cl)c4)c(C)nc23)cc1OC` [Example 94, 6-(3-Chloro-4-fluoro-phenyl)-3-(3,4-dimethoxy-phenyl)-5-methyl-pyrazolo[1,5-a]pyrimidin-7-ylamine], the IC50 at c-Abl kinase and at Tek was greater than 10000 nM in each case.

Turning to `CN1CCN(c2cccc(-c3cnn4c(N)c(-c5cccc(Br)c5)cnc34)c2)CC1` [Example 86, 6-(3-Bromo-phenyl)-3-[3-(4-methyl-piperazin-1-yl)-phenyl]-pyrazolo[1,5-a]pyrimidin-7-ylamine], the half-maximal inhibitory concentration (IC50) on c-Abl kinase was less than 1000 nM; on Tek it was 1000 to 10000 nM.

For the molecule `Cc1nc2c(-c3cccc(N4CCN(C)CC4)c3)cnn2c(N)c1-c1cccc(Cl)c1` [Example 72, 6-(3-Chloro-phenyl)-5-methyl-3-[3-(4-methyl-piperazin-1-yl)-phenyl]-pyrazolo[1,5-a]pyrimidin-7-ylamine], the IC50 was less than 1000 nM at c-Abl kinase and 1000 to 10000 nM at Tek.

Take `Cc1nc2c(-c3cccc(N4CCC(N5CCCC5)CC4)c3)cnn2c(N)c1-c1ccc(F)cc1` [Example 103, 6-(4-Fluoro-phenyl)-5-methyl-3-[3-(4-pyrrolidin-1-yl-piperidin-1-yl)-phenyl]-pyrazolo[1,5-a]pyrimidin-7-ylamine]: the IC50 at c-Abl kinase was less than 1000 nM; at Tek it was greater than 10000 nM.
